Reference: patent US7419965B2, “Nucleotide lipid ester derivatives” (Heidelberg Pharma AG, priority 2003, dated 2008)

Tests used:
Parameters in all cases: species or system nude mice
[1] = system: human colon carcinoma xenograft HCT-15; assay: Antitumor activity in human colon carcinoma xenograft model (HCT-15) in vivo; conditions: for Tumor weight (median): ip once daily for 5 days from day 8, day 28; for Tumor inhibition: ip once daily for 5 days, day 28, vs vehicle control
Procedure: The antitumor activity of the nucleotide conjugate and its corresponding nucleoside has been compared in the human colon carcinoma xenograft HCT-15 model in nude mice.
Tumor bearing mice were randomized on day 7 after HCT-15 tumor cell inoculation and were distributed to treatment groups of 9 animals per group. Treatment was started on day 8. The animals were treated intraperitoneally (ip) once daily for 5 consecutive days with the nucleotide conjugate or the nucleoside. Dosages included 50 and 25% of the Maximum Tolerable Doses (MTD′s). Control animals were injected with the corresponding solvents (Vehicle 1 or 2). On day 28, the primary tumors were explanted and the tumor weights were determined.
(§1) Tumor bearing mice were distributed to treatment groups of 9-10 animals per group. Treatment Treatment cycle(s)(one or two) were performed consisting of once daily intraperitoneal administrations for 5 consecutive days. Dosages were in the range of 6.25% and 100% of the Maximum Tolerated Doses (MTD's). Control animals were treated with solvent (vehicle) only, The percentage of tumor inhibition refers to the median tumor size of the vehicle treated control group and dose groups at the end of each experiment.

[2] = system: human breast carcinoma xenograft MDA-MB-231; assay: Antitumor activity in human breast carcinoma xenograft model (MDA-MB-231) in vivo; conditions: for Tumor inhibition: day 49, vs vehicle control; for Tumor volume (median): orally once daily days 21-25 and 28-32, day 49
Procedure: The antitumor activity of nucleotide conjugate and its corresponding nucleoside has been compared in the human breast carcinoma xenograft MDA-MB-231 model in nude mice.
Tumor bearing mice were randomized on day 21 after MDA-MB-231 tumor cell inoculation and were distributed to treatment groups of 9 animals per group. Treatment was started on day 21. At this time point the animals had well vascularized tumors of about 400 mg. The animals were treated orally once daily for 2 weeks with nucleotide conjugate and its corresponding nucleoside on days 21-25 and 28-32. Doses ranged from 6.25% to 50% of the Maximum Tolerable Doses (MTD's). Control animals were treated with the solvent (vehicle) only. […]

[3] = system: human prostate carcinoma xenograft PC-3; assay: Antitumor activity in human prostate carcinoma xenograft model (PC-3) in vivo; conditions: for Tumor inhibition: day 52, vs vehicle control; for Tumor weight (median): ip once daily for 5 days from day 7, day 52
Procedure: The antitumor activity of nucleoside conjugate and nucleoside has been compared in the human prostate carcinoma xenograft PC-3 model in nude mice.
Tumor bearing mice were randomized on day 7 after PC-3 tumor cell inoculation and were distributed to treatment groups of n=10 animals per group. Treatment was started on day 7. The animals were treated intraperitoneally (ip) once daily for 5 consecutive days with nucleotide conjugate or nucleoside. Dosages included 100 and 50% of the Maximum Tolerable Doses (MTD's). Control animals were treated with the corresponding solvent (vehicle) only. On day 52, the primary tumors were explanted and the tumor weights were determined.
as §1

[4] = system: human ovarian carcinoma xenograft SKOV-3; assay: Antitumor activity in human ovarian carcinoma xenograft model (SKOV-3) in vivo; conditions: for Tumor inhibition: end of treatment period (day 17), vs vehicle control; for Tumor volume (median): ip once daily day 6-10 and 13-17, end of treatment (day 17)
Procedure: The antitumor activity of nucleotide conjugate and nucleoside has been compared in the human ovarian carcinoma xenograft SKOV-3 model in nude mice.
(§2) Tumor bearing mice were randomized on day 6 after SKOV-3 tumor cell inoculation and were distributed to treatment groups of 9 animals per group. Treatment was started on day 6. The animals were treated intraperitoneally (ip) once daily on day 6-10 and 13-17 with nucleotide conjugate or nucleoside. Dosages ranged between 6.25 and 100% of the Maximum Tolerable Doses (MTD's). Control animals were treated with solvent (vehicle) only.
as §1

[5] = system: human pancreatic carcinoma xenograft AspC1; assay: Antitumor activity in human pancreatic carcinoma xenograft model (AspC1) in vivo; conditions: for Tumor inhibition: day 30, vs vehicle control; for Tumor weight (median): ip once daily day 6-10 and 20-23, day 30
Procedure: The antitumor activity of nucleotide conjugate and nucleoside has been compared in the human pancreatic carcinoma xenograft AspC1 model in nude mice.
as §2, with “AspC1” for “SKOV-3”, “10” for “9”, “20-23” for “13-17”, “included 100” for “ranged between 6.25”, “50%” for “100%”
as §1

[6] = system: human cervix carcinoma xenograft KB-3-1; assay: Antitumor activity in human cervix carcinoma xenograft model (KB-3-1) in vivo; conditions: for Tumor inhibition: day 29, vs vehicle control; for Tumor volume (median): ip once daily days 8-12, day 29
Procedure: The antitumor activity of nucleotide conjugate and nucleoside has been compared in the human cervix carcinoma xenograft KB-3-1 model in nude mice.
Tumor bearing mice were randomized on day 8 after KB-3-1 tumor cell inoculation and were distributed to treatment groups of 9 animals per group. Treatment was started on day 8. The animals were treated intraperitoneally (ip) once daily for 5 consecutive days (days 8-12) with nucleotide conjugate or nucleoside. Dosages included 100 and 50% of the Maximum Tolerable Doses (MTD's). Control animals were injected with solvent (Vehicle).
as §1

[7] = 25% MTD (nucleoside 20, conjugate 63 mg/kg/injection)
[8] = 50% MTD (nucleoside 40, conjugate 125 mg/kg/injection)
[9] = HCT-15, Dose 50.00 % MTD as printed in summary table
[10] = HCT-15, Dose 100.00 % MTD as printed in summary table
[11] = 6.25% MTD (nucleoside 2.5, conjugate 12.5 mg/kg)
[12] = 12.50% MTD (nucleoside 5.0, conjugate 25.0 mg/kg)
[13] = 25.00% MTD (nucleoside 10.0, conjugate 50.0 mg/kg)
[14] = 50.00% MTD (nucleoside 20.0, conjugate 100.0 mg/kg)
[15] = 50% MTD (nucleoside 20, conjugate 50 mg/kg/injection)
[16] = 100% MTD (nucleoside 40, conjugate 100 mg/kg/injection)
[17] = 25% MTD (nucleoside 7.5, conjugate 18.8 mg/kg/injection)
[18] = 50% MTD (nucleoside 15.0, conjugate 37.5 mg/kg/injection)
[19] = 100% MTD (nucleoside 30.0, conjugate 75.0 mg/kg/injection)

`CCCCCCCCCCCCSCC(COP(=O)(O)OC[C@H]1O[C@@H](n2cnc3c(N)nc(Cl)nc32)[C@@H](F)[C@@H]1O)OCCCCCCCCCC` (stereo partly drawn) [Nucleotide conjugate, [2-Chloro-9-(2′-deoxy-2′-fluoro-β-D arabinofuranosyl)adenine]-5′-phosphoric acid-(3-dodecylmercapto-2-decyloxy)propyl ester] was tested, and the “Tumor weight (median)” value [1, 7] was 257 mg, the Tumor inhibition [1, 7] was 62% and the “Tumor weight (median)” value [1, 8] was 16 mg. For the same compound, the Tumor inhibition [1, 8] was 98%, the “Tumor inhibition (summary table)” value [1, 9] was 62% and the “Tumor inhibition (summary table)” value [1, 10] was 98%. For the same compound, the “Antitumor efficacy compared with the corresponding nucleoside” value ([1]; at both doses) was “significantly (p<0.01) higher”, the “Activity relative to nucleoside (conclusion)” value ([1]; conclusion of summary, human colon carcinoma xenograft) was “Superior activity” and the Tumor inhibition [2, 11] was 63%. The “Tumor volume (median)” value [2, 11] was 1267 mm^3, the Tumor inhibition [2, 12] was 94% and the “Tumor volume (median)” value [2, 12] was 196 mm^3. The Tumor inhibition [2, 13] was 97%, the “Tumor volume (median)” value [2, 13] was 108 mm^3 and the Tumor inhibition [2, 14] was 99%. The “Tumor volume (median)” value [2, 14] was 51 mm^3, the “Antitumor efficacy compared with the corresponding nucleoside” value ([2]; at all doses) was “significantly (p <0.05) higher” and the “Activity relative to nucleoside (conclusion)” value ([2]; conclusion of summary, MDA-MB-231) was “Superior activity”. For the same compound, the Tumor inhibition [3, 15] was 82%, the “Tumor weight (median)” value [3, 15] was 92 mg and the Tumor inhibition [3, 16] was 87%. The “Tumor weight (median)” value [3, 16] was 64 mg, the “Antitumor efficacy compared with Nucleoside” value ([3]; at both doses) was “significantly higher (p<0.01)” and the “Activity relative to nucleoside (conclusion)” value ([3]; conclusion of summary, PC-3) was “Superior activity”. The Tumor inhibition [4, 17] was 44%, the “Tumor volume (median)” value [4, 17] was 144 mm^3 and the Tumor inhibition [4, 18] was 58%. For the same compound, the “Tumor volume (median)” value [4, 18] was 108 mm^3, the Tumor inhibition [4, 19] was 75% and the “Tumor volume (median)” value [4, 19] was 63 mm^3. The “Antitumor efficacy compared with the nucleoside” value ([4]; at MTD) was “significantly higher (p<0.01)”, the “Activity relative to nucleoside (conclusion)” value ([4]; conclusion of summary, SKOV-3) was “Superior activity” and the Tumor inhibition [5, 18] was 65%. For the same compound, the “Tumor weight (median)” value [5, 18] was 80 mg, the Tumor inhibition [5, 19] was 96% and the “Tumor weight (median)” value [5, 19] was 10 mg. The “Antitumor efficacy compared with Nucleoside” value ([5]; at both doses) was “significantly higher (p<0.01)”, the “Activity relative to nucleoside (conclusion)” value ([5]; conclusion of summary, AspC1) was “Superior activity” and the Tumor inhibition [6, 15] was 74%. For the same compound, the “Tumor volume (median)” value [6, 15] was 877 mm^3, the Tumor inhibition [6, 16] was 97% and the “Tumor volume (median)” value [6, 16] was 104 mm^3. The “Antitumor efficacy compared with Nucleoside” value ([6]; at the MTD) was “significantly higher (p<0.01)” and the “Activity relative to nucleoside (conclusion)” value ([6]; conclusion of summary, KB-3-1) was “Superior activity”.

With `Nc1nc(Cl)nc2c1ncn2[C@@H]1O[C@H](CO)[C@@H](O)[C@@H]1F` [Nucleoside, 2-Chloro-9-(2′-deoxy-2′-fluoro-β-D arabinofuranosyl)adenine, reference compound] the “Tumor weight (median)” value [1, 7] was 431 mg, the Tumor inhibition [1, 7] was 25% and the “Tumor weight (median)” value [1, 8] was 329 mg. For the same compound, the Tumor inhibition [1, 8] was 42%, the “Tumor inhibition (summary table)” value [1, 9] was 25% and the “Tumor inhibition (summary table)” value [1, 10] was 42%. For the same compound, the Tumor inhibition [2, 11] was 46%, the “Tumor volume (median)” value [2, 11] was 1862 mm^3 and the Tumor inhibition [2, 12] was 84%. For the same compound, the “Tumor volume (median)” value [2, 12] was 550 mm^3, the Tumor inhibition [2, 13] was 95% and the “Tumor volume (median)” value [2, 13] was 172 mm^3. The Tumor inhibition [2, 14] was 97%, the “Tumor volume (median)” value [2, 14] was 108 mm^3 and the Tumor inhibition [3, 15] was 40%. For the same compound, the “Tumor weight (median)” value [3, 15] was 303 mg, the Tumor inhibition [3, 16] was 60% and the “Tumor weight (median)” value [3, 16] was 202 mg. For the same compound, the Tumor inhibition [4, 17] was 37%, the “Tumor volume (median)” value [4, 17] was 162 mm^3 and the Tumor inhibition [4, 18] was 58%. For the same compound, the “Tumor volume (median)” value [4, 18] was 108 mm^3, the Tumor inhibition [4, 19] was 51% and the “Tumor volume (median)” value [4, 19] was 126 mm^3. The Tumor inhibition [5, 18] was 30%, the “Tumor weight (median)” value [5, 18] was 160 mg and the Tumor inhibition [5, 19] was 35%. For the same compound, the “Tumor weight (median)” value [5, 19] was 150 mg, the Tumor inhibition [6, 15] was 68% and the “Tumor volume (median)” value [6, 15] was 1059 mm^3. The Tumor inhibition [6, 16] was 49% and the “Tumor volume (median)” value [6, 16] was 1705 mm^3.
